SMILES | melting point [°C]
CC(N)c1ccc(OCC(N)=O)cc1 (stereo unspecified) | 127 to 129
Cc1ncc(CO)c(C)n1 | 52 to 54
CCOc1ccc(CO)cc1OCC | 37 to 39
NNc1ccc(C(F)(F)F)nn1 | 132 to 134
CCCCN1Cc2ccc(N)cc2C1 | 62 to 64
O=C1OCCc2cnc3ncnn3c21 | 271 to 273
Nc1ccc(S(N)(=O)=O)cn1 | 171 to 173
CCOC(=O)/C(C#N)=C\Nc1ccc2c(c1)OCCCO2 | 124 to 126
Cc1c(Cl)cc(N)cc1Cl | 55 to 57
CSc1nn(C)c(N)c1C(N)=O | 173 to 175
Cc1nc(C=O)c2ccccn12 | 115 to 117
N#Cc1ccc(-c2cnc(CCl)o2)cc1 | 124 to 126
CCN(CC)C(=O)CCC(=O)O | 74 to 76
O=S(=O)(Cl)c1ccc2c(c1)S(=O)(=O)CC2 | 128 to 130
O=C(O)C1CCCCN1C(=O)C1CCCO1 (stereo unspecified) | 116 to 118
Cc1ccc(C#N)nc1Br | 130 to 132
CN(C)C(=O)c1cnc(Cl)c(Cl)c1 | 89 to 91
O=C1CSC(N2CCCCC2)=N1 | 76 to 80
Cc1nnc(S)o1 | 239 to 241
O=S1(=O)CCC(S(=O)(=O)Cl)C1 (stereo unspecified) | 114 to 116

SMILES | melting point [°C]
COc1ccccc1CCNC(=O)CCl | 78 to 80
N#Cc1cc2c([nH]c1=O)CCCC2 | 246 to 248
Cc1ccsc1-c1nsc(N)n1 | 165 to 167
NC(=S)N1CCc2sccc2C1 | 109 to 111
NC(=O)CCNc1ccccc1[N+](=O)[O-] | 136 to 138
CCCCc1ccc2nc(N)sc2c1 | 95 to 101
CNC(=O)c1cc(NC)ccn1 | 114 to 116
Cc1csc(-c2cnc(C)[nH]c2=O)n1 | 302 to 304
Nn1c(SCC(=O)O)nnc1C1CCCCC1 | 159 to 161
O=Cc1cnc(-c2cccs2)s1 | 113 to 115
CCOC(=O)c1c[nH]cc1C(F)(F)F | 161 to 163
COc1ccc(C#N)cc1N | 74 to 76
NNc1ccncc1Cl | 158 to 160
CCCCNc1ccc(S(N)(=O)=O)cc1N | 130 to 132
CNC(=O)c1cccnc1Cl | 106 to 108
Cc1nc([N+](=O)[O-])cn1CCC(=O)O | 217 to 219
COc1ccc(CC2CCNCC2)cc1 | 55 to 57
CC(=O)N(Cc1ccc(N)cc1)C(C)C | 110 to 112
COCCCn1cnnc1S | 161 to 163
Cc1nc(C2COCCN2C(=O)OC(C)(C)C)no1 (stereo unspecified) | 96 to 98

SMILES | melting point [°C]
Nc1ccn(Cc2ncccn2)n1 | 100 to 102
CC1CCCCC12NC(=O)N(CC(=O)O)C2=O (stereo unspecified) | 156 to 158
OC1CCSc2ccccc21 (stereo unspecified) | 67 to 69
NC(=NO)c1cc(Br)cs1 | 132 to 134
Nc1cc(CC2CCCC2)no1 | 67 to 69
Cn1ccnc1C(=O)OCC(F)(F)F | 83 to 85
COC(=O)Cn1ncc2c(Cl)ncnc21 | 66 to 68
CC(C)(C)OC(=O)NC1CCCCCC1C(=O)O (stereo unspecified) | 123 to 125
Nc1ccc(Cl)c(S(=O)(=O)N2CCCCC2)c1 | 92 to 96
Cc1ccn2c(N)nnc2c1 | 287 to 289
Nc1nc(=O)cc[nH]1 | 268 to 272
CCS(=O)(=O)c1ccc(S(=O)(=O)Cl)cc1 | 104 to 106
N#Cc1c(Cl)nsc1Cl | 64 to 66
Cc1cc(N)n(Cc2ccccn2)n1 | 94 to 96
NCc1ccc(N2CCNCC2)cc1 | 163 to 165
Nc1ccc2nc(N3CCCC3)sc2c1 | 201 to 203
CCOc1ccc(-c2csc(N)n2)cc1 | 248 to 250
N#CCC(=O)c1ccsc1 | 92 to 94
Cc1cn2c(n1)CNCC2 | 100 to 102

Further lines, results first:

melting point [°C] | SMILES
272 to 274 | O=c1[nH]c(=O)c2cc(S(=O)(=O)Cl)ccc2[nH]1
153 to 155 | NC(=O)c1cc(N)ccc1Cl
175 to 177 | c1ccc(COc2ccc3[nH]ncc3c2)cc1
120 to 122 | C#Cc1cccc(NC(=O)CCl)c1
124 to 126 | O=C(O)Cc1csc(-c2cccc(F)c2)n1
194 to 196 | c1ccc2[nH]c(Cc3nc4ccccc4s3)nc2c1
260 to 262 | O=c1[nH][nH]c2ncccc12
116 to 118 | CCOc1ccc(NS(=O)(=O)c2ccc(C)c(N)c2)cc1
119 to 121 | CC(C)CC(C(=O)O)N1C(=O)c2ccccc2C1=O (stereo unspecified)
127 to 129 | Nc1ccccc1NC(=O)N1CCCC1
116 to 118 | COc1ccc(N)cc1OCc1ccncc1
144 to 146 | CC(CC(=O)O)NS(=O)(=O)c1cccnc1Cl (stereo unspecified)
102 to 104 | O=C(O)C1CC(=O)N(c2cccc(C(F)(F)F)c2)C1 (stereo unspecified)
329 to 331 | CCOC(=O)c1cnc2cc(Br)ccc2c1O
97 to 99 | Nc1cccc(-c2ccc(Cl)c(Cl)c2)c1
44 to 46 | CC(C)c1ccc(C(=O)CCl)cc1
121 to 123 | Nc1cccc(C(=O)N2CCCCC2)c1
143 to 145 | CC(=O)c1cccc(S(N)(=O)=O)c1
50 to 52 | C=CS(=O)(=O)c1cccc(Br)c1
103 to 105 | CC(C)(C)n1[nH]c(-c2ccccc2)cc1=N
173 to 175 | O=C(Nc1cccc(Cn2cccnc2=O)c1)OCC(F)(F)F
264 to 266 | NC(=O)c1cc2ccccc2c(Cl)n1

melting point [°C] | SMILES
262 to 264 | Sc1nc(-c2ccccc2)c[nH]1
224 to 226 | O=C(O)c1cc2ccccc2c(Nc2ccccc2F)n1
127 to 129 | O=C(CCl)c1ccc(N2CCCC2=O)cc1
178 to 180 | O=C(O)Cn1c(=O)oc2ccccc21
104 to 106 | CCC(C#N)NC(=O)c1ccccc1 (stereo unspecified)
102 to 104 | COC(=O)c1cccc(C(N)=NO)c1
65 to 67 | N#CCc1cnn(-c2ccccc2)n1
148 to 150 | CC(C)C(O)(C(=O)O)c1ccccc1 (stereo unspecified)
269 to 271 | COc1ccc(-c2n[nH]c(=O)c3ccccc23)cc1F
201 to 203 | O=C1CCCN1c1cccc(O)c1
215 to 217 | O=C(O)c1cnc(-c2ccc3c(c2)CCO3)s1
202 to 204 | O=C(O)C1CCCN(S(=O)(=O)c2ccc(Cl)cc2)C1 (stereo unspecified)
397 to 399 | O=C(O)c1ccc2c(=O)n(-c3ccc(F)cc3)c(=O)[nH]c2c1
145 to 147 | Sc1nnnn1-c1ccccc1
208 to 210 | CC(O)CNS(=O)(=O)c1ccc(C(=O)O)cc1 (stereo unspecified)
160 to 162 | CC(=O)Nc1ccc(S(=O)(=O)NCCC(=O)O)cc1
166 to 168 | O=C(O)Cn1ccc2ccc(Cl)cc21
173 to 175 | Cc1cc(N)ccc1NC(=O)c1ccco1
74 to 76 | COC(=O)c1cccc(CC(=O)O)c1
123 to 125 | O=Cc1cccc(OCc2occc2C(=O)O)c1
334 to 336 | O=C(O)c1c[nH]nc1-c1ccncc1
95 to 98 | O=C(O)CCSCc1cn2ccccc2n1

melting point [°C] | SMILES
38 to 40 | N#CCc1cnn(-c2ccccc2)c1
274 to 276 | O=C(O)c1cc(NCc2ccccc2)ccn1
147 to 149 | CC1C(=O)NC(=O)N1c1ccccc1 (stereo unspecified)
289 to 291 | O=c1cnc2cc(F)c(F)cc2[nH]1
190 to 192 | O=C(O)c1cccc(S(=O)(=O)NCc2ccco2)c1
69 to 71 | O=C(Nc1ccc(Cl)cc1)OCC(F)(F)F
199 to 201 | COc1cc(N)ccc1S(=O)(=O)Nc1ccc(Cl)cc1Cl
60 to 62 | CN(C)c1ccc(Cn2nccc2N)cc1
177 to 179 | CNC(=O)c1ccc(N)cc1
102 to 104 | O=C(CCl)Nc1cccc(Oc2ccccc2)c1
256 to 258 | O=C1c2ccccc2C(=O)N1CCc1nn[nH]n1
192 to 194 | Nc1ccn(-c2ccncc2)n1
159 to 161 | Clc1ccc(NCCc2ccccc2)nn1
84 to 86 | CC(C)(C)OC(=O)N1CCc2cc(N)ccc21
166 to 168 | Nc1cccc(S(=O)(=O)NC2=NCCC2)c1
63 to 65 | COC(=O)c1ccc(F)cc1S(=O)(=O)Cl
173 to 175 | O=C(O)CCNC(=O)Nc1ccccc1
71 to 73 | O=C1CCc2c(OCc3ccccc3)cccc21
156 to 158 | CCN(CC(=O)O)S(=O)(=O)c1cccnc1Cl
99 to 101 | Cc1ccc(C(=O)CCC(=O)O)s1
87 to 89 | O=[N+]([O-])c1ccc(COc2ccccc2)cc1
248 to 250 | O=C(O)c1cccnc1Nc1cc(F)ccc1F

melting point [°C] | SMILES
116 to 118 | CC(=O)c1c(Cl)nc2ccccn12
175 to 177 | O=C(O)CNS(=O)(=O)c1ccc(F)c(F)c1F
50 to 52 | COC(=O)c1ccc(F)c(CBr)c1
153 to 155 | O=C1NCCN1c1ccccc1[N+](=O)[O-]
169 to 171 | O=C(O)c1ccc(COc2ccccc2)o1
115 to 117 | O=S(=O)(Cl)c1ccc(OCC(F)F)c2ccccc12
122 to 124 | O=C(O)C1CC1c1ccc(Br)cc1 (stereo unspecified)
159 to 161 | O=C(NC(CO)C(=O)O)c1ccccc1 (stereo unspecified)
138 to 140 | O=C(O)c1cccc(Oc2ccc(Cl)c(Cl)c2)n1
95 to 97 | CN1C(=O)CCC(CO)C1c1ccc(C(F)(F)F)cc1 (stereo unspecified)
121 to 123 | O=C(CBr)c1ccc(S(=O)(=O)N2CCCC2)cc1
185 to 187 | NS(=O)(=O)c1ccc(Br)c([N+](=O)[O-])c1
383 to 385 | O=C1CC(=O)Nc2ccccc2N1
217 to 219 | CC(C)(C)NS(=O)(=O)c1cc(C(=O)O)ccc1Br
228 to 230 | O=C(O)c1cccnc1Sc1ccc2c(c1)OCCO2
264 to 266 | Cc1nn(-c2ccccc2)c2sc(C(=O)NN)cc12
174 to 176 | Cc1cc(Cl)ccc1OCc1n[nH]c(-c2ccccn2)n1
49 to 51 | CCC(Br)C(=O)c1ccc(OC)cc1 (stereo unspecified)
235 to 237 | Cc1c(-c2ccccc2)nc2ccccc2c1C(=O)O
112 to 114 | OCc1c[nH]c2ccc(Br)cc12
146 to 148 | OC(c1ccc(F)cc1)C1CCNCC1 (stereo unspecified)

Source: a melting point compilation (Tetko et al.)
